Test results published in patent publication US10046050B2, “Targeting immunotherapy for amyloidosis” (UNIVERSITY OF TENNESSEE RESEARCH FOUNDATION, priority 2014, dated 2018).

What was measured:
AA amyloid = biological target: T1, AA amyloid (Mus musculus, UniProt P05367); experiment: In vivo binding of ^125I-p66 in AA mice (microautoradiography, SPECT/CT, biodistribution)
T1 construct: from tissue; host or cells: organs of living H2-L^d-huIL-6 Tg Balb/c mice after AEF injection
T1 sequence (P05367 20-94 limits assumed): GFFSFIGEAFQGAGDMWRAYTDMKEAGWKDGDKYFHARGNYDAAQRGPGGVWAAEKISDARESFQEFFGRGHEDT
Description: Systemic visceral AA amyloidosis was induced in H2-L^d-huIL-6 Tg Balb/c transgenic mice that constitutively express the human interleukin-6 transgene, by iv injection of 10 μg of purified, splenic AA amyloid (amyloid enhancing factor; AEF) in 100 μL of sterile phosphate-buffered saline (PBS). Peptide p66 was evaluated in mice at 4-6 wk post AEF injection when amyloid load was significant.
Imaging was performed using WT or AA amyloid mice (n=3) that were injected with ˜5 μg of ^125I-p66, 125 μCi in the lateral tail vein. After the appropriate uptake time (data for 4 and 72 h pi shown), mice were euthanized by isoflurane inhalation overdose. SPECT images were acquired using an Inveon trimodality imaging platform (Siemens Preclinical Solution, Knoxville, Tenn.) running Inveon Acquisition Workplace software (ver. 2.0). Low energy (^125I; 25-45 keV) gamma photons were acquired at each of 60, 16-sec projections with 90 mm of bed travel. […]
Samples of liver, spleen, pancreas, kidneys, small and large intestines, stomach and heart were harvested post mortem from every mouse undergoing imaging with ^125I-p66. A sample of each was placed into a tared, plastic vial, weighed and the ^125I radioactivity measured using an automated Wizard 3 gamma counter (1480 Wallac Gamma Counter, Perkin Elmer). The biodistribution data were expressed as % injected dose/g tissue (% ID/g). […]

^125I-7D8 = experiment: Pulldown assay with peptope-coated polystyrene beads; type: binding; settings: peptope conjugated to polystyrene beads; ˜0.065 nM ^125I-7D8
Description: The 7D8 antibody (15 μg) was radiolabeled with 0.5 mCi of reductant-free iodine-125 (^125I, Perkin Elmer) using limiting amounts of chloramine T (10 μg) and suspended in PBS containing 0.1% gelatin as carrier protein. Unbound radioisotope and protein aggregates were removed from the preparation by size-exclusion liquid chromatography using an Ultrogel AcA34 solid phase (Amersham Pharmacia). Fractions containing ^125I-7D8 were pooled for pull-down assays. The relative radiopurity of the preparation was assessed by SDS/PAGE (4-12% acrylamide; Novex) followed by imaging using a phosphor-imager (Cyclone).
Pulldown assays were performed using ^125I-7D8 using, as a substrate, peptope-conjugated to polystyrene beads, synthetic fibrils (Aβ[1-40] or IAPP) or human ATTR amyloid extracts (transthyretin-associated amyloid [ATTR] was previously isolated from the organs of three different patients with Appalachian mutation—Thr60Ala). […] The sample was mixed end over end for 1 h at room temperature, and the bound and free ^125I-7D8 were then separated by serial centrifugations at 16,000×g and the percent bound calculated immunoreactivity=[boundcpm/(boundcpm+freecpm)]×100 Pulldown assays using synthetic fibrils and amyloid extracts were performed essentially as described herein. […]

| Substance | time post injection at which amyloid in the liver could be readily visualized by SPECT imaging (AA amyloid; AA mice, ^125I-p66) | binding of radiolabeled peptide to amyloid deposits in vivo (AA amyloid; mice with systemic AA amyloidosis, iv, autoradiography vs Congo red) | percent of added ^125I-7D8 bound (^125I-7D8) |
| --- | --- | --- | --- |
| KAQKAQAKQAKQAQKAQKAQAKQAKQAQKAQKAQAKQAKQ SVTVVT KHYAAFPENLLI [p66] | at least 72 h | specifically bound the amyloid deposits | – |
| KAQKAQAKQAKQAQKAQKAQAKQAKQAQHEDT [p75, KAQKAQAKQAKQAQKAQKAQAKQAKQAQHEDT] | – | – | 62.3% |
